The supplement of paper PMC10307832

Tests used:
Assay in all cases: relative viability (nuclei count vs DMSO), 5 days (fraction); higher = more cells survive
[1] = compound: CC1(C)CCC(CN2CCN(c3ccc(C(=O)NS(=O)(=O)c4ccc(NCC5CCOCC5)c([N+](=O)[O-])c4)c(Oc4cnc5[nH]ccc5c4)c3)CC2)=C(c2ccc(Cl)cc2)C1 [Venetoclax] + Nc1nc2[nH]cc(CCc3ccc(C(=O)N[C@@H](CCC(=O)O)C(=O)O)cc3)c2c(=O)[nH]1 [Pemetrexed] (partner 0.2 µM)
Method in brief: (§1)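 Five library-drug doses in √10 steps were combined with a fixed anchor-drug dose, or a single drug was given alone, by pin tool to lung cancer cell lines in 1536-well plates the day after seeding. Nuclei were stained and counted after 5 days. Relative viability is the nuclei count in treated wells over that in vehicle wells, taken as the median of duplicate plates.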

[2] = compound: Cn1cnc2c(F)c(Nc3ccc(Br)cc3Cl)c(C(=O)NOCCO)cc21 [Selumetinib] + O=C(c1cc(Cc2n[nH]c(=O)c3ccccc23)ccc1F)N1CCN(C(=O)C2CC2)CC1 [Olaparib] (partner 8 µM)
Method in brief: as §1

[3] = compound: Cn1cnc2c(F)c(Nc3ccc(Br)cc3Cl)c(C(=O)NOCCO)cc21 [Selumetinib] + COc1cccc2cc(-c3nc([C@H]4CC[C@H](C(=O)O)CC4)n4ncnc(N)c34)[nH]c12 [OSI-027] (partner 0.5 µM)
Method in brief: as §1

[4] = compound: Cn1cnc2c(F)c(Nc3ccc(Br)cc3Cl)c(C(=O)NOCCO)cc21 [Selumetinib] + Nc1ncn([C@H]2C[C@H](O)[C@@H](CO)O2)c(=O)n1 [Decitabine] (partner 2 µM)
Method in brief: as §1

Cell Line	relative viability ([1]; first compound 0.01 µM)	relative viability ([1]; first compound 0.03162 µM)	relative viability ([1]; first compound 0.1 µM)	relative viability ([1]; first compound 0.3162 µM)	relative viability ([1]; first compound 1 µM)	relative viability ([2]; first compound 0.02 µM)	relative viability ([2]; first compound 0.06325 µM)	relative viability ([2]; first compound 0.2 µM)	relative viability ([2]; first compound 0.6325 µM)	relative viability ([3]; first compound 0.02 µM)	relative viability ([3]; first compound 0.06325 µM)	relative viability ([3]; first compound 0.2 µM)	relative viability ([3]; first compound 0.6325 µM)	relative viability ([4]; first compound 0.02 µM)	relative viability ([4]; first compound 0.06325 µM)	relative viability ([4]; first compound 0.2 µM)	relative viability ([4]; first compound 0.6325 µM)
LCLC-103H	0.447	0.432	0.448	0.43	0.447	0.656	0.703	0.66	0.663	0.474	0.425	0.453	0.44	0.697	0.715	0.71	0.706
ChaGo-K-1	0.257	0.26	0.255	0.26	0.263	0.43	0.414	0.398	0.39	0.562	0.504	0.524	0.528	0.544	0.539	0.48	0.532
COR-L 105	0.738	1.03	1.11	1.16	1.07	0.73	0.727	0.687	0.582	0.612	0.46	0.467	0.343	0.637	0.507	0.452	0.45
NCI-H2009	0.989	1.04	1.05	1	0.961	0.775	0.6	0.608	0.316	0.52	0.491	0.395	0.261	0.354	0.292	0.35	0.279
NCI-H2023	0.238	0.243	0.263	0.264	0.203	0.555	0.467	0.454	0.487	0.392	0.348	0.318	0.375	0.232	0.211	0.209	0.247
SW 1573	0.784	0.808	0.784	0.843	0.846	0.479	0.403	0.368	0.437	0.515	0.449	0.464	0.458	0.505	0.369	0.384	0.373
NCI-H2405	0.98	1.16	0.979	1.06	0.963	0.85	0.762	0.844	0.581	0.721	0.661	0.585	0.412	0.733	0.751	0.736	0.615
HCC-44	0.667	0.673	0.63	0.649	0.656	0.988	0.997	0.983	1.01	0.482	0.388	0.35	0.368	1.03	0.982	0.962	0.942
EMC-BAC-2	0.406	0.457	0.407	0.467	0.417	0.636	0.657	0.674	0.717	0.42	0.447	0.511	0.483	0.991	0.976	0.997	0.942
NCI-H322M	0.606	0.581	0.598	0.627	0.596	0.662	0.63	0.564	0.599	0.487	0.434	0.477	0.45	0.722	0.71	0.598	0.548
NCI-H358	0.176	0.176	0.187	0.178	0.179	0.463	0.367	0.282	0.207	0.435	0.359	0.312	0.279	0.194	0.181	0.193	0.158
NCI-H1944	0.669	0.592	0.571	0.607	0.589	0.394	0.386	0.359	0.318	0.4	0.391	0.337	0.335	0.433	0.456	0.397	0.426
NCI-H2342	0.872	0.784	0.747	0.738	0.717	0.403	0.4	0.43	0.415	0.611	0.6	0.46	0.59	0.778	0.716	0.727	0.638
H3255	0.584	0.615	0.526	0.603	0.562	0.554	0.586	0.603	0.536	0.511	0.661	0.582	0.593	0.647	0.649	0.557	0.614
NCI-H1993	0.565	0.579	0.599	0.57	0.668	1.16	0.808	0.876	0.795	0.553	0.585	0.585	0.632	0.571	0.615	0.549	0.604
NCI-H650	0.911	1.02	1.03	0.89	0.836	0.478	0.514	0.47	0.526	0.66	0.806	0.825	0.826	0.334	0.283	0.342	0.376
NCI-H460	0.062	0.0571	0.0565	0.0577	0.064	0.433	0.384	0.342	0.225	0.52	0.425	0.227	0.225	0.432	0.484	0.402	0.326
NCI-H1437	0.309	0.316	0.328	0.309	0.308	0.665	0.58	0.549	0.47	0.802	0.56	0.531	0.324	0.614	0.537	0.464	0.544
